Consider 6 compounds from patent publication US10183943B2, “Heterocyclic compounds and their use in preventing or treating bacterial infections” (MUTABILIS, priority 2015, dated 2019).

Each structure is given as a SMILES string. Structures can show the parent of a compound that is named as a salt.

The target of experiment [1] is T1, OXA-11 (Pseudomonas aeruginosa, UniProt Q06778).
T1 construct: made in house; host or cells: E. coli
In words: β-lactamase inhibitory activity, determination of IC50 (nitrocefin hydrolysis). The class given is biochemical.

The target in experiment [2] is AmpC (P99) (Enterobacter cloacae, UniProt P05364). The experiment is described as above.
Chain of AmpC (P99) (P05364 21-381): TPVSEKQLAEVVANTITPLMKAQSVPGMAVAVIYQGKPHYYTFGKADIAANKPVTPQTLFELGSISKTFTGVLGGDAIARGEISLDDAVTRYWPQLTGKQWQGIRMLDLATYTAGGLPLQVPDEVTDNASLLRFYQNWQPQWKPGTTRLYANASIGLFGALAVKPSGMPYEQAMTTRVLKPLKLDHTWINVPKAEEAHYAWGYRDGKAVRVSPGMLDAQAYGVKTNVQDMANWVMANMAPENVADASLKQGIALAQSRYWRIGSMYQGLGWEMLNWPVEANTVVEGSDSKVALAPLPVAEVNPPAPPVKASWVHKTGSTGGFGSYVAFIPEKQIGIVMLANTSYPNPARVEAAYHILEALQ
Experiment [3] deals with AmpC P. aeruginosa (Pseudomonas aeruginosa, UniProt P24735). Described as above.
Chain of AmpC P. aeruginosa (P24735 27-397): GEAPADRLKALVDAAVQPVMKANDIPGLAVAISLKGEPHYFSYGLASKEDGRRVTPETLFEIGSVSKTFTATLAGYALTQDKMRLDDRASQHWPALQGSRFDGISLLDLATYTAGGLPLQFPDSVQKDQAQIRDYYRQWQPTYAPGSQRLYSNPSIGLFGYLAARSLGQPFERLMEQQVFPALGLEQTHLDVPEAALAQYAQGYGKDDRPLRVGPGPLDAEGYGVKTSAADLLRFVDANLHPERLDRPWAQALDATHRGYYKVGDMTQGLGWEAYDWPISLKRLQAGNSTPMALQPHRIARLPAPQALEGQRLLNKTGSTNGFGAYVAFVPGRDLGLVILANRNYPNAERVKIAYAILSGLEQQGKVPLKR
Experiment [4] deals with E. cloacae UFR85 (TEM-1, CTX-M-15, AmpC). Description: MIC of compounds alone, broth microdilution. The class given is cell-based. The note with it: Enterobacter cloacae, read-out: MIC compounds of the invention alone. In a few lines: (§1)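 CLSI broth microdilution with compounds alone, spotted from DMSO, against log-phase bacteria at 5×10^5 cfu/mL in cation-adjusted Mueller-Hinton broth. Plates incubated 16-20 h at 35 °C in ambient air; MIC was the lowest concentration preventing visible growth.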
For orientation: Broth dilution looks for growth in wells or tubes with falling amounts of substance.

Experiment [5] relates to E. cloacae UFR70 (TEM-1, CTX-M-15, CMY-2, OXA-1, Porin loss). In words: MIC of compounds alone, broth microdilution. It is filed as cell-based. Conditions: Enterobacter cloacae, read-out: MIC compounds of the invention alone. The gist of the method: as §1
Experiment [6] relates to K. pneumoniae UFR68 (TEM-1, SHV-11, CTX-M-15, KPC-3). Description: MIC of compounds alone, broth microdilution. The class given is cell-based. Conditions: Klebsiella pneumoniae, read-out: MIC compounds of the invention alone. In a few lines: as §1
Experiment [7] concerns E. cloacae 260508 (TEM-1, CTX-M-15). In words: MIC of compounds alone, broth microdilution. The class given is cell-based. The note with it: Enterobacter cloacae, read-out: MIC compounds of the invention alone. The gist of the method: as §1
Experiment [8] has as its target T2, SHV-1 (Klebsiella pneumoniae, UniProt P0AD64).
T2 construct: made in house; host or cells: E. coli
Description: β-lactamase inhibitory activity, determination of IC50 (nitrocefin hydrolysis). It is filed as biochemical.

Experiment [9] concerns E. coli UFR41 (TEM-1, CTX-M-15, CMY-2, OXA-1, NDM-4). In words: MIC of ceftazidime (CAZ) in combination with compounds at 4 μg/mL, broth microdilution. The class given is cell-based. The note with it: strain UFR41; MIC of CAZ with compound fixed at 4 μg/mL. In a few lines:
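Compounds were dissolved in DMSO and spotted onto plates. Log-phase cells were then added at 5×10^5 cfu/mL in cation-adjusted Mueller-Hinton broth, incubated 16-20 h at 35° C, and the MIC was scored visually as the lowest growth-inhibiting concentration.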

In experiment [10] the target is T3, OXA-1 (Escherichia coli, UniProt P13661).
T3 construct: made in house; host or cells: E. coli
T3 sequence (P13661 26-276): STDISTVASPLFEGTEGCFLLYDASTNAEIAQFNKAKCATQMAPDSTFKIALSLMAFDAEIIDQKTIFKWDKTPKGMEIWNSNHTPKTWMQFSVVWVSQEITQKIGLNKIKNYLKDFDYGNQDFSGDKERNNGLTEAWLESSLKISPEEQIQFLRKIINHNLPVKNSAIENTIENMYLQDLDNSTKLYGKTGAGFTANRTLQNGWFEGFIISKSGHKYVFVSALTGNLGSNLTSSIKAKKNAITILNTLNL
In words: β-lactamase inhibitory activity, determination of IC50 (nitrocefin hydrolysis). It is filed as biochemical. Conditions: class (D); nitrocefin 200 μM, 30 min pre-incubation; read-out: IC50 β-lactamase OXA-1.

For experiment [11], the target named is T4, TEM-1 (Escherichia coli, UniProt P62593).
T4 construct: made in house; host or cells: E. coli
T4 sequence (P62593 24-286 limits assumed): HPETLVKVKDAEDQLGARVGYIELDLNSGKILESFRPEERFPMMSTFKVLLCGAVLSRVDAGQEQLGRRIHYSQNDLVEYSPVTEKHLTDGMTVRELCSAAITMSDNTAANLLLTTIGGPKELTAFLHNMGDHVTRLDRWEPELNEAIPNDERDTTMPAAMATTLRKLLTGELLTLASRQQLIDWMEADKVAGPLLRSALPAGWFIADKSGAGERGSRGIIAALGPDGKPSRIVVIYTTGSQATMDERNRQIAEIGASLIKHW
The description is as above. It is filed as biochemical.

Experiment [12] deals with E. coli 190317 (TEM-1, SHV-12, CTX-M-15, OXA-1). In words: MIC of compounds alone, broth microdilution. It is filed as cell-based. Conditions: Escherichia coli, read-out: MIC compounds of the invention alone. In a few lines: as §1

T2 sequence (P0AD64 22-286): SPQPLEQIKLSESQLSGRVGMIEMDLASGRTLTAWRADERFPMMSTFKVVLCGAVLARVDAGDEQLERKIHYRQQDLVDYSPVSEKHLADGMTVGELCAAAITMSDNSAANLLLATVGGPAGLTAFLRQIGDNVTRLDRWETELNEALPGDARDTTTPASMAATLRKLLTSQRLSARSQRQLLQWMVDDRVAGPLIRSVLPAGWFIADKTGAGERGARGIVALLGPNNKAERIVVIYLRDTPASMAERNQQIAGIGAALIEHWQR
T1 sequence (Q06778 21-266): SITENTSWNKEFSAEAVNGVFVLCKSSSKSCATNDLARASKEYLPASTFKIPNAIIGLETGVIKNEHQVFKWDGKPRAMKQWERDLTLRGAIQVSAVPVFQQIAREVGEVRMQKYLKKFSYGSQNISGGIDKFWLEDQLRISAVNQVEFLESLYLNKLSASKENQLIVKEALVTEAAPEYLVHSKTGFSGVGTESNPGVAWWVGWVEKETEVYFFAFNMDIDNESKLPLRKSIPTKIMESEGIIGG

As to `O=C1N2CC=C(c3cnco3)C(C2)N1OS(=O)(=O)[O-].[Na+]` (centres unmarked) [Example 3, Sodium [4-(oxazol-5-yl)-7-oxo-1,6-diazabicyclo[3.2.1]oct-3-en-6-yl]sulfate], the IC50 (in general, the midpoint of a concentration-inhibition curve) in experiment [1] was found to be 1100 nM; in experiment [2], 770 nM; in experiment [3], 2000 nM; in [8] it was 6.9 nM; in [10] it was 210 nM; in experiment [11], 3.4 nM. Also, the MIC (as a rule, the lowest concentration that inhibits growth of the organism) was more than 32 µg/mL in experiment [4], 8 µg/mL in experiment [5], more than 32 µg/mL in experiment [6] and 16 µg/mL in [7]. Also, in experiment [9], the “MIC combination of CAZ and compounds of the invention at 4 μg/mL” value (shortened to “MIC combination”) is more than 64 µg/mL.

Take `Cn1cc(C2=CCN3CC2N(OS(=O)(=O)[O-])C3=O)cnc1=O.[Na+]` (centres unmarked) [Example 15, Sodium [4-(N-methyl-2-oxo-pyrimidin-5-yl)-7-oxo-1,6-diazabicyclo[3.2.1]oct-3-en-6-yl] sulfate]: the IC50 in experiment [1] is 2600 nM; in experiment [2], 2000 nM; in experiment [3] it was 3500 nM; in experiment [8], 12 nM; in [10], 1100 nM; in experiment [11], 9.9 nM. In addition, the MIC was more than 32 µg/mL in experiment [4], 8 µg/mL in experiment [5] and more than 32 µg/mL in [6].

Take `Cn1ncc(C2=CCN3CC2N(OS(=O)(=O)[O-])C3=O)cc1=O.[Na+]` (centres unmarked) [Example 19, Sodium [4-(1-methyl-6-oxo-pyridazin-4-yl)-7-oxo-1,6-diazabicyclo[3.2.1]oct-3-en-6-yl] sulfate]: the IC50 was 290 nM in experiment [1]; 940 nM in [2]; 1800 nM in [3]; 8.9 nM in [8]; 380 nM in [10]; 4 nM in experiment [11]. For the same compound, the MIC in experiment [4] is more than 32 µg/mL; in experiment [12], 2 µg/mL; in experiment [5] it was 16 µg/mL; in experiment [6] it was more than 32 µg/mL. Also, in [9], the “MIC combination” value was more than 64 µg/mL.

For the compound `O=C1N2CC(c3ncco3)=CC(C2)N1OS(=O)(=O)[O-].[Na+]` (centres unmarked) [Example 25, Sodium [3-(oxazol-2-yl)-7-oxo-1,6-diazabicyclo[3.2.1]oct-3-en-6-yl]sulfate], the concentration for half-maximal inhibition (IC50) in experiment [1] is 190 nM; in [2], 64 nM; in experiment [3] it was 97 nM; in [8], 15 nM; in [10], 310 nM; in [11], 3.8 nM. In addition, the MIC was found to be 2 µg/mL in experiment [4], 2 µg/mL in experiment [5] and 4 µg/mL in experiment [7]. In addition, in experiment [9], the “MIC combination” value came to 0.25 µg/mL.

With `NCc1cnc(C2=CC3CN(C2)C(=O)N3OS(=O)(=O)O)s1` (centres unmarked) [Example 38, [3-[5-(aminomethyl)thiazol-2-yl]-7-oxo-1,6-diazabicyclo[3.2.1]oct-3-en-6-yl] hydrogen sulfate], the IC50 was 560 nM in [1]; 31 nM in [2]; 320 nM in experiment [3]; 4.3 nM in experiment [8]; 630 nM in experiment [10]; 0.7 nM in [11]. The MIC was 1 µg/mL in experiment [12] and more than 32 µg/mL in experiment [7]. Further, the “MIC combination” value in experiment [9] is recorded as “<=0.25 μg/mL”.

With `O=C1N2CC(c3ncco3)=C[C@H](C2)N1OS(=O)(=O)[O-].[Na+]` [Example 44, Sodium [(5R)-3-(oxazol-2-yl)-7-oxo-1,6-diazabicyclo[3.2.1]oct-3-en-6-yl] sulfate], the IC50 turned out to be 46 nM in experiment [1]; 10 nM in experiment [2]; 75 nM in experiment [3]; 6 nM in [8]; 87 nM in experiment [10]; 0.69 nM in [11]. Also, the figures for the MIC in experiment [4] and in [6] were 2 µg/mL and 4 µg/mL, respectively. Moreover, the “MIC combination” value in [9] was less than 0.25 µg/mL.
